In ChEMBL document CHEMBL1201862, “PubChem BioAssay data set” (2004):
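Exposure lasted 48 hours, with cells grown in 96-well plates and compounds tested at five concentrations. At the GI50, growth is halved.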 Calls of active or inactive are those of the source. Cut-off read from the data, not from the text of the source: active = GI50 up to about 1.1 µM and inactive = higher.

Legend:
Assay in all cases: DTP human tumour cell line panel, 48 h
[1] = tested on: MDA-MB-231
[2] = tested on: HCT-116
[3] = tested on: DU-145
[4] = tested on: SNB-75
[5] = tested on: COLO 205
[6] = tested on: RXF 393
[7] = tested on: RPMI-8226
[8] = tested on: NCI-H226
[9] = tested on: UACC-257
[10] = tested on: NCI-H23
[11] = tested on: HCT-15
[12] = tested on: Malme-3M
[13] = tested on: IGROV-1
[14] = tested on: EKVX
[15] = tested on: HL-60
[16] = tested on: SF-268
[17] = tested on: SW-620
[18] = tested on: MDA-MB-435
[19] = tested on: TK-10
[20] = tested on: SN12C

Structure (SMILES)	GI50 [1]	GI50 [2]	GI50 [3]	GI50 [4]	GI50 [5]	GI50 [6]	GI50 [7]	GI50 [8]	GI50 [9]	GI50 [10]	GI50 [11] [µM]	GI50 [12]	GI50 [13]	GI50 [14]	GI50 [15]	GI50 [16]	GI50 [17]	GI50 [18]	GI50 [19]	GI50 [20]
Oc1cc(-c2ccccc2Cl)nc2cc3c(cc12)OCO3	0.143 µM (active)	0.0528 µM (active)	0.121 µM (active)	30.7 µM (inactive)	0.0507 µM (active)	0.0416 µM (active)	0.101 µM (active)	0.13 µM (active)	0.443 µM (active)	0.122 µM (active)	0.0371	0.0598 µM (active)	0.173 µM (active)	0.155 µM (active)	0.0207 µM (active)	1.64 µM (inactive)	0.0698 µM (active)	0.0146 µM (active)	0.731 µM (active)	0.261 µM (active)
Cc1cc2c3c(c1)CCCN3CCC2	> 10 µM (inactive)	> 10 µM (inactive)	> 10 µM (inactive)	> 10 µM (inactive)	> 10 µM (inactive)	> 10 µM (inactive)	> 10 µM (inactive)	> 10 µM (inactive)	> 10 µM (inactive)	> 10 µM (inactive)	> 10	> 10 µM (inactive)	> 10 µM (inactive)	> 10 µM (inactive)	> 10 µM (inactive)	> 10 µM (inactive)	> 10 µM (inactive)	> 10 µM (inactive)	> 10 µM (inactive)	> 10 µM (inactive)
COC(=O)C1(NC(=O)C(N)CC(=O)O)C(C)C1C (stereo not given)	> 100 µM (inactive)	> 100 µM (inactive)	> 100 µM (inactive)	> 100 µM (inactive)	> 100 µM (inactive)	> 100 µM (inactive)	> 100 µM (inactive)	> 100 µM (inactive)	> 100 µM (inactive)	> 100 µM (inactive)	> 100	> 100 µM (inactive)	> 100 µM (inactive)	> 100 µM (inactive)	> 100 µM (inactive)	> 100 µM (inactive)	> 100 µM (inactive)	> 100 µM (inactive)	> 100 µM (inactive)	> 100 µM (inactive)
O=C1/C(=C/c2ccc(O)cc2)CCC1CNc1ccc(Cl)cc1 (stereo not given)	3.04 µM (inactive)	1.38 µM (inactive)	13.3 µM (inactive)	15.6 µM (inactive)	1.19 µM (inactive)	6.31 µM (inactive)	0.755 µM (active)	12.6 µM (inactive)	3.05 µM (inactive)	5.9 µM (inactive)	1.3	4.28 µM (inactive)	3.21 µM (inactive)	6.61 µM (inactive)	0.861 µM (active)	3.2 µM (inactive)	1.37 µM (inactive)	3.61 µM (inactive)	1.72 µM (inactive)	3.94 µM (inactive)
CC(C)C(Br)CC/C(CBr)=C(\Cl)CCl (stereo not given)	2.64 µM (inactive)	2 µM (inactive)	12.6 µM (inactive)	5.19 µM (inactive)	3.4 µM (inactive)	1.81 µM (inactive)	2 µM (inactive)	2.75 µM (inactive)	3.03 µM (inactive)	3.19 µM (inactive)	2.11	5.37 µM (inactive)	1.89 µM (inactive)	17.9 µM (inactive)	0.585 µM (active)	4.37 µM (inactive)	1.82 µM (inactive)	2.35 µM (inactive)	7.93 µM (inactive)	2.99 µM (inactive)
O=C(CN1CCN(Cc2ccccc2)CC1)c1ccc2[nH]c(=O)oc2c1	> 100 µM (inactive)	> 100 µM (inactive)	> 100 µM (inactive)	> 41.3 µM (inactive)	> 100 µM (inactive)	> 100 µM (inactive)	> 100 µM (inactive)	> 50.6 µM (inactive)	> 100 µM (inactive)	> 100 µM (inactive)	> 100	0.845 µM (active)	99.3 µM (inactive)	> 66.2 µM (inactive)	> 90.4 µM (inactive)	> 100 µM (inactive)	> 100 µM (inactive)	> 30.5 µM (inactive)	> 100 µM (inactive)	> 100 µM (inactive)
O=C1C(=O)N(C2CCCCC2)C(=S)N1C1CCCCC1	> 100 µM (inactive)	> 100 µM (inactive)	> 100 µM (inactive)	> 100 µM (inactive)	> 100 µM (inactive)	> 100 µM (inactive)	> 100 µM (inactive)	> 100 µM (inactive)	> 100 µM (inactive)	> 100 µM (inactive)	> 100	> 100 µM (inactive)	> 100 µM (inactive)	> 100 µM (inactive)	> 100 µM (inactive)	> 100 µM (inactive)	> 100 µM (inactive)	> 100 µM (inactive)	> 100 µM (inactive)	> 100 µM (inactive)
NCC(O)CNC(=O)c1ccc(-c2ccc(-c3ccc(C(=O)NCC(O)CN)cc3)o2)cc1 (stereo not given)	24.5 µM (inactive)	22.4 µM (inactive)	22 µM (inactive)	25.8 µM (inactive)	81.8 µM (inactive)	18.9 µM (inactive)	> 100 µM (inactive)	22.6 µM (inactive)	> 100 µM (inactive)	36.1 µM (inactive)	57.8	21.7 µM (inactive)	30.8 µM (inactive)	27.7 µM (inactive)	> 100 µM (inactive)	28.2 µM (inactive)	> 100 µM (inactive)	> 100 µM (inactive)	18 µM (inactive)	25.1 µM (inactive)
COc1c(-c2nc3ccc(N4CCN(C)CC4)cc3[nH]2)cc(OC)c2[nH]c(COC(C)=O)nc12	34.2 µM (inactive)	32.4 µM (inactive)	26.1 µM (inactive)	9.4 µM (inactive)	50.1 µM (inactive)	11.8 µM (inactive)	34.7 µM (inactive)	> 100 µM (inactive)	53.5 µM (inactive)	65.9 µM (inactive)	> 100	25.1 µM (inactive)	> 100 µM (inactive)	98.4 µM (inactive)	59.8 µM (inactive)	94.8 µM (inactive)	40.2 µM (inactive)	37.8 µM (inactive)	71.4 µM (inactive)	41.4 µM (inactive)
